Reference: PMC4313117, “Elabela-Apelin Receptor Signaling Pathway is Functional in Mammalian Systems” (Scientific Reports, 2015)

Tests used:
mouse aortic rings = test: Vasorelaxation of U46619-contracted mouse aortic rings; design: species or system mouse (C57BL/6)
Text: Changes in tension were expressed as the percentage decrease in reference to precontraction tension. […] Values are means ± SEM. (n = 5–10). **p < 0.01, compared to aortas with endothelium at the same concentration points of the compound.
Aortas were isolated from 8–10 weeks male wild-type C57BL/6 mice, cut into 3-mm rings and mounted in organ chambers (PowerLab, AD Instruments, CO, USA) in Kreb's buffer as described previously. The contractile response was elicited by vasoconstrictor U46619 (30 nM) to produce contraction. […] In some preparations, the endothelium was mechanically removed from denuded arteries by gentle rubbing off the intimal surface with a wooden stick.

APJ = details: zebrafish studies; cited from earlier work
Text: ELA deficiency leads to severe defects in heart development and lymphogenesis. ...

HUVECs = test: In vitro angiogenesis (tubular formation) assay in HUVECs; type: cell-based, human; details: for increase in number of branch points: HUVECs on Geltrex, counted after 10 hr; for increase in number of branch points / increase in tubular formation, APJ-overexpressing HUVECs: n = 5
Text: ELA is a secreted hormone and expressed in adult kidney and prostate, and may, therefore, circulate in blood. Since ELA is required for normal development of cardiovascular system, blood vessel could be a target of ELA action. Vascular tube formation assay is a well-used in vitro study to assess angiogenic factors and conditions in which vascular cells, [e.g. human umbilical vascular endothelial cells (HUVECs)], can form tube-like structures under pro-angiogenic conditions in culture wells coated with Geltrex containing extra-cellular matrix. The number of branch points is used as an indicator for the strength of angiogenic stimuli.
Figure 4 Stimulation of tubule-like structure by ELA-APJ signaling. […] (B), Reverse transcription PCR of human APJ expression of HUVECs infected with APJ or APJ siRNA lentiviral constructs.
Tubular formation assay for angiogenesis was conducted in 96-well plates which were coated with 50 μl of Geltrex (Life Technologies, A14133-02) and left for polymerization by incubation for 1 hr at 37°C. […] Quantification of the tubular formation was performed after 10 hr of culture by calculating the number of branching point formed in each well under an inverted phase contrast photomicroscope (Olympus IX50), as described.

human saphenous vein = details: cited from earlier work
[1] = test system: mouse heart failure model of coronary artery ligation; details: cited from earlier work
Text: Apelin was considered the only endogenous ligand for APJ since isolation of the apelin peptide. Apelin is expressed in multiple tissues including adipose tissue, heart, vasculature, brain and kidney, whereas APJ is more broadly expressed in tissues such as heart, blood vessels and adipose tissue. […] At the receptor level, APJ is a GPCR coupled to Gi and/or Gq[15][16]. Activation of APJ results in biochemical responses i ... || Recently, the therapeutic potential of apelin as a reagent for heart failure has been increasingly recognized.

[2] = test system: vascular tone; blood pressure; details: cited from earlier work
Description: The aortic rings were induced to contraction with vasoconstrictor U46619 (final concentration, 30 nM).

CSCC[C@H](NC(=O)[C@@H](NC(=O)[C@H](CC(C)C)NC(=O)[C@H](CC(N)=O)NC(=O)[C@@H](NC(=O)[C@@H]1CCCN1C(=O)[C@H](CCCNC(=N)N)NC(=O)[C@@H](N)CCC(N)=O)C(C)C)[C@@H](C)O)C(=O)N[C@@H](CCCNC(=N)N)C(=O)N[C@@H](CCCNC(=N)N)C(=O)N[C@@H](CCCCN)C(=O)N[C@@H](CC(C)C)C(=O)N[C@@H](CCCNC(=N)N)C(=O)N[C@@H](CCCCN)C(=O)N[C@@H](Cc1c[nH]cn1)C(=O)N[C@@H](CC(N)=O)C(=O)N[C@H]1CSSC[C@@H](C(=O)N[C@@H](CCSC)C(=O)N2CCC[C@H]2C(=O)N[C@@H](CC(C)C)C(=O)N[C@@H](Cc2c[nH]cn2)C(=O)N[C@@H](CO)C(=O)N[C@@H](CCCNC(=N)N)C(=O)N[C@H](C(=O)N2CCC[C@H]2C(=O)N[C@@H](Cc2ccccc2)C(=O)N2CCC[C@H]2C(=O)O)C(C)C)NC(=O)[C@H](CCCNC(=N)N)NC(=O)[C@H](CCCNC(=N)N)NC(=O)[C@H](CCC(N)=O)NC(=O)[C@H](CC(C)C)NC1=O [ELA]
relaxation with L-NAME pretreatment (mouse aortic rings; 1 mM L-NAME for 30 min, then U46619, followed by ELA): No significant difference was observed between the L-NAME-treated and non-treated vessels
maximum relaxation, endothelium-intact vessels (mouse aortic rings; U46619 30 nM precontraction, ELA 10^−9 to 10^−6 M cumulative, n = 5–10): 73.7%
decrease in relaxation in denuded vs intact vessels (mouse aortic rings; endothelium-denuded, ELA at corresponding concentrations, n = 5–10): ~ 20%
binding and activation of APJ (APJ): binds and activates APJ
tubular formation, APJ-knock down HUVECs (HUVECs; ELA 0.1 μM, APJ siRNA): not effective in inducing the formation of tubular structures
increase in number of branch points (HUVECs; ELA 0.1 μM): 71.9%
increase in tubular formation, APJ-overexpressing HUVECs (HUVECs; ELA 0.1 μM, compared to empty vector control cells with ELA): 63.3%
increase in tubular formation, APJ-overexpressing HUVECs (HUVECs; ELA 0.1 μM, compared to empty vector control cells without ELA): 190.2%
increase in number of branch points (HUVECs; ELA 0.5 μM): 222.8%
increase in number of branch points (HUVECs; ELA 1 μM): 266.7%

apelin-13
reduction of relaxing effect by removal of endothelium (mouse aortic rings; apelin-13, denuded vs intact vessels, n = 5–10): 48%
relaxation, denuded vessels (mouse aortic rings; apelin-13, endothelium-denuded, U46619 30 nM precontraction, n = 5–10): 31%
maximum relaxation, endothelium-intact vessels (mouse aortic rings; apelin-13 at 10^−6 M, U46619 30 nM precontraction, n = 5–10): 79%

CC(=O)OCC[N+](C)(C)C [acetylcholine]
relaxation by acetylcholine (control of endothelium removal and NOS inhibition) (mouse aortic rings; endothelium-denuded or L-NAME-treated arteries): inability of acetylcholine to relax the arteries

apelin
vasoconstriction (human saphenous vein): vasoconstriction is also noted in human saphenous vein
cardiac protection, contractility, infarction size, stem cell mobilization ([1]; mouse heart failure model of coronary artery ligation): have cardiac-protective effect and can increase heart contractility, reduce infarction size and promote cardiac stem cell mobilization to the infarct area
cardioprotective effect ([1]; various animal models, infusion): appears to have cardioprotective effect in various animal models
vascular tone [2]: relax vascular tone
vasodilatory effect [2]: a vasodilatory effect of apelin is reported
blood pressure ([2]; no ref number printed at this statement): lower blood pressure
vasoconstriction in denuded vessels ([2]; vessels denuded of endothelium): vasoconstriction is also noted
